Reference: patent US20030125234A1, “Alteration of protein stability” (priority 2001, published 2003)
Entries after “also recorded” stand apart in the source; their conditions may differ. Residues, ends and D or L forms follow the SMILES beside them.

What was measured:
Type in all cases: biochemical
[1] = target: T1, Bovine insulin (Bos taurus, UniProt P01317); assay: Insulin aggregation (turbidity at 360 nm) induced by DTT; settings: Insulin 0.25 mg/mL, 25° C., DTT; compound 100×; standard deviation in parenthesis
T1 construct: purchased Sigma, St. Louis, Mo., USA
Outline: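 Bovine insulin was dissolved in pH 7.0 PBS (50 mM sodium biphosphate, 100 mM sodium chloride) at 0.25 mg/mL (4.39E-5 M). Test compounds were added, then aggregation was induced with 20 μL of 1 M DTT […]. Turbidity at 360 nm was followed for 1 hour at 25° C. and compared with insulin lacking the compound.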

[2] = target: T2, chicken egg white lysozyme (Gallus gallus, UniProt P00698); assay: Lysozyme aggregation (turbidity at 360 nm) induced by DTT; settings: Lysozyme 0.4 mg/mL, 25° C., DTT; compound 1,000×; standard deviation in parenthesis
T2 construct: chicken egg white lysozyme [Sigma]; purchased Sigma; host or cells: egg white
Outline: (§1)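 OD360 was followed for 1 h against protein without test compound. pST (1.27 mg/mL, pH 6.1 phosphate) at 60° C with 20 mg/mL PEG 8000; lysozyme (0.4 mg/mL, pH 8.2 Tris/EDTA) at 25° C and HLF (0.4 mg/mL, pH 7.4 HEPES) at 43° C with 1.27E-4 M DTT; ADH (1 mg/mL) 37° C, 7.76E-5 M Cu(OP)2.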

[3] = target: T3, bovine alpha-lactalbumin (Bos taurus, UniProt P00711); assay: Alpha-lactalbumin aggregation (turbidity at 360 nm) induced by DTT; settings: for inhibition index: α Lactalbumin 0.4 mg/mL, 37° C., DTT, compound 1,000×, standard deviation in parenthesis
T3 construct: purchased Sigma
T3 sequence (P00711 20-142): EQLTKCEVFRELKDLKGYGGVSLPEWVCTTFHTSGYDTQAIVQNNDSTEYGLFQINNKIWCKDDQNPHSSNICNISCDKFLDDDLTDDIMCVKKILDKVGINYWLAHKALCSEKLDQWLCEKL
Outline: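 Bovine alpha-lactalbumin (0.4 mg/mL (2.82E-5 M)) was prepared in 50 mM sodium phosphate, 100 mM sodium chloride and 2 mM EDTA, pH 6.2. Aggregation was triggered with 20 μL of 1 M DTT […] at 37° C. and followed for 1 hour as optical density at 360 nm, compared against protein without the dipolar compound.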

[4] = target: T4, human apolactoferrin (HLF) (Homo sapiens, UniProt P02788); assay: HLF aggregation (turbidity at 360 nm) induced by DTT; settings: HLF 0.4 mg/mL, 43° C., DTT, head 10,000×, standard deviation in parenthesis
T4 construct: purchased Sigma
Outline: as §1

[5] = target: T5, yeast alcohol dehydrogenase (ADH) (Saccharomyces cerevisiae, UniProt P00330); assay: ADH oxidation-induced aggregation (turbidity at 360 nm), Cu(OP)2; settings: for inhibition index: ADH 1 mg/mL, 37° C., Cu(OP)2
T5 construct: purchased Sigma
T5 sequence (P00330 2-348 limits assumed): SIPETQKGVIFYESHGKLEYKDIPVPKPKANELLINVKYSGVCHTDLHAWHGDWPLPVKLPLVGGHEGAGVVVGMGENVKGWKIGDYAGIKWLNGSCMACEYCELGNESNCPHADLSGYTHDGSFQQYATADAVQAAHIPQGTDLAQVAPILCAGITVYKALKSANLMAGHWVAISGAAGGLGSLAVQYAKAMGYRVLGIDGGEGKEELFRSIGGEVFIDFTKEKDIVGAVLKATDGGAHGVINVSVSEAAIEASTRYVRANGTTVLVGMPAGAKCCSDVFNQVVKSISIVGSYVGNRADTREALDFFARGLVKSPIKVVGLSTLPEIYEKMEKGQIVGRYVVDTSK
Outline: as §1

[6] = target: T6, porcine somatotropin (pST) (Sus scrofa, UniProt P01248); assay: Porcine somatotropin aggregation (turbidity at 360 nm) with PEG 8000; settings: pST 1.27 mg/mL, 60° C., standard deviation in parenthesis
T6 construct: purchased Pfizer, Inc., Groton, Conn., USA (provided, not bought)
T6 sequence (P01248 27-216): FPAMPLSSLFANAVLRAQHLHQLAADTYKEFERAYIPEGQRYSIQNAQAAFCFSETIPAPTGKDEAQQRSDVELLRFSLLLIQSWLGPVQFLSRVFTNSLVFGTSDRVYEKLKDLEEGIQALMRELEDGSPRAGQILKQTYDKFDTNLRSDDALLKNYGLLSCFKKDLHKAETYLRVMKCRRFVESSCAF
Outline: as §1

[7] = compound 10,000X molar excess, Infinite = complete inhibition of aggregation over one hour
[8] = compound 1,000X, standard deviation in parenthesis

T2 sequence (P00698 19-147): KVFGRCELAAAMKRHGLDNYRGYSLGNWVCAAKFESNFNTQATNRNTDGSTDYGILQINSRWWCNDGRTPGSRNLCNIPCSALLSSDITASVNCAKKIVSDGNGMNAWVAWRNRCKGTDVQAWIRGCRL
T4 sequence (P02788 20-710): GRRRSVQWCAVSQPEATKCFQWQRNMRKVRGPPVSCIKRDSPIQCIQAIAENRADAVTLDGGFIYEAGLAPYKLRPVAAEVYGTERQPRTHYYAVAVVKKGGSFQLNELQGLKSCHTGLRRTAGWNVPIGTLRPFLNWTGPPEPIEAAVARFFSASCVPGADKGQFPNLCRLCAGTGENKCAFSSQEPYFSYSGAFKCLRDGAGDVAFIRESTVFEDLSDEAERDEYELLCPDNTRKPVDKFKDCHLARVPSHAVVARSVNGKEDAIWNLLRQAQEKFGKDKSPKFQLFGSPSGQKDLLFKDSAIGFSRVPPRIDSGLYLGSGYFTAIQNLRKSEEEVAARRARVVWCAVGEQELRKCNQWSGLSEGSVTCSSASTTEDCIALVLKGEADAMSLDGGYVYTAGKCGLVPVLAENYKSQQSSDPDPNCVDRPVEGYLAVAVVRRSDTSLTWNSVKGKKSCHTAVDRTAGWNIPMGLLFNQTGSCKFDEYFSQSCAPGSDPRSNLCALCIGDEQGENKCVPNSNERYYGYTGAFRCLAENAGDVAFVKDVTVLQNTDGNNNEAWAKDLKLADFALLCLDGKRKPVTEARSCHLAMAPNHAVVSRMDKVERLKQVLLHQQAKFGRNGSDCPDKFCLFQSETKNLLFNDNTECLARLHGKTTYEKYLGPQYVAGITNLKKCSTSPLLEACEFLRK
T1 sequence (P01317 25-54 limits assumed): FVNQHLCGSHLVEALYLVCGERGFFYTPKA
T1 sequence (P01317 85-105 limits assumed): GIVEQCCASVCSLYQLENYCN

Row | Molecule | inhibition index [1] | inhibition index [2] | inhibition index [3] | inhibition index ([4]; second HLF column) | inhibition of ADH aggregation, in words ([5]; FIG. 1) | inhibition index ([6]; compound 100X) | inhibition index ([6]; compound 2,000X) | inhibition index [5, 7] | inhibition index ([4]; first HLF column) | inhibition index [5, 8] | inhibition of α-lactalbumin aggregation, in words [3]
1 | O=C(O)C(=O)O [oxalate, oxalic acid] | 0.9 (0.6)^3 | 1.6 (1.0) | 1.3 (0.2) | 666.9 | most potent inhibitor; also recorded: effective inhibitors | 0.8 (0.1) | 1.5 (0.3) | – | – | – | –
2 | O=C(O)CCCCCC(=O)O [pimelate, pimelic acid] | 1.4 (0.6) | 2.0 (0.7) | 1.3 (0.3) | 78.9 (68.2) | – | 0.8 (0.1) | 1.5 (0.4) | 9.0 (1.3) | – | – | –
3 | O=C(O)CCCCCCC(=O)O [suberate, suberic acid] | 1.6 (0.3) | 1.4 (0.2) | 2.0 (0.7) | 95.4 (34.6) | – | 0.7 (0.0) | 1.7 (0.3) | 15.5 (1.4) | – | – | –
4 | O=C(O)CCC(=O)O [succinate, succinic acid] | 1.0 (0.3) | 1.0 (0.3) | 1.1 (0.3) | 33.7 (11.9) | – | 0.9 (0.1) | 2.1 (0.3) | 2.7 (0.7) | – | – | –
5 | NCC(=O)NCC(=O)NCC(=O)O [triglycine] (H-Gly-Gly-Gly-OH) | 1.4 (0.1) | 1.6 (0.3) | 0.9 (0.1) | 5.7 (4.0) | – | 0.7 (0.0) | 2.5 (0.3) | 187.6 (46.1) | 0.2 (0.1) | 5.0 (1.4) | –
6 | Glu-Glu | 1.0 (0.1) | 1.2 (0.7) | 1.0 (0.1) | 2.1 | – | 0.6 (0.1) | – | 5.3 (1.2) | 9.8 (0.8) | 1.4 (0.2) | –
7 | Lys-Lys | 1.1 (0.1) | 1.3 (0.1) | 1.0 (0.1) | 11.2 | – | 0.9 (0.1) | – | 2.7 | 13.5 (1.2) | 1.4 (0.2) | –
8 | diglycine | 1.0 (0.2) | 0.9 (0.0) | 1.0 (0.0) | 10.0 | – | 1.9 (0.3) | – | 0.7 (0.1) | 7.4 (1.0) | 4.0 (0.9) | –
9 | pentaglycine | 1.0 (0.2) | 0.2 (0.1) | 3.1 (1.2) | 0.5 (0.0) | – | 0.7 (0.2) | – | Infinite^4 | 979.0 (7.5) | 5.8 (3.1) | Potent inhibitors
10 | tetraglycine | 1.5 (0.3) | 2.1 (0.5) | 1.3 (0.4) | 0.1 | – | 0.8 (0.1) | 3.4 (0.6) | 5313.1 | 8.3 (9.5) | 8.4 (2.7) | –
